Like-named read-outs stand apart in the source and are kept apart here.
Target: T1, recombinant human Syk (GST-hSyk fusion protein) (Homo sapiens, UniProt P43405)
T1 construct: purchased Carna Biosciences 08-176
Test: Homogeneous Time-Resolved Fluorescence (HTRF) assay for the recombinant human Syk enzyme
Type: biochemical
Settings: 10-dose titration, 25 μM ATP
Method: Syk inhibition may be determined using the following assay protocol:
Homogeneous Time-Resolved Fluorescence (HTRF) Assay for the Recombinant Human Syk Enzyme:
A recombinant GST-hSyk fusion protein was used to measure potency of compounds to inhibit human Syk activity. The recombinant human GST-Syk (Carna Biosciences #08-176) (5 pM final concentration) was incubated with various concentrations of the inhibitor diluted in DMSO (0.1% final concentration) for 10 minutes at room temperature in 15 mM Tris-HCl (pH 7.5), 0.01% tween 20, 2 mM DTT in 384 well plate format. To initiate the reaction the biotinylated substrate peptide (250 nM final concentration) that contains the phosphorylation site for Syk was added with magnesium (5 mM final concentration) and ATP (25 μM final concentration). Final volume of the reaction was 10 μL. Phosphorylation of the peptide was allowed to proceed for 45 minutes at room temperature. To quench the reaction and detect the phosphorylated product, 2 nM of a Europium-anti-phosphotyrosine antibody (Perkin Elmer #AD0161) and 70 nM SA-APC (Perkin-Elmer #CR130-100) were added together in 15 mM Tris pH 7.5, 40 mM EDTA, 0.01% tween 20. Final volume of the quenching solution was 10 μL. The resulting HTRF signal was measured after 30 minutes on an EnVision (Perkin-Elmer) reader using a time-resolved fluorescence protocol. IC50 was determined following 10-dose titration (10 μM to 0.508 nM) and four parameter logistic curve fitting using the Merck Assay Data Analyzer. The rhSyk activity (IC50) is expressed as +++(100 nM or less), ++(between 100 and 1000 nM), +(between 1 and 10 μM).

[1] = IC50 class, read-out: rhSYK Activity

| SMILES | IC50 [1] [µM] | IC50 (read-out: rhSYK IC50) [µM] |
| --- | --- | --- |
| Cc1cc(Nc2ncccn2)cc(-c2cnn(Cc3ccc(O)cc3)c2)c1 [Example 2.58, 4-({4-[3-methyl-5-(pyrimidin-2-ylamino)phenyl]-1H-pyrazol-1-yl}methyl)phenol] | ≤ 0.1 | – |
| Cc1cc(Nc2cc(C(F)(F)F)ccn2)nc(-c2cnn(C[C@H](O)C(N)=O)c2)c1 [Example 6.15, (2S)-2-hydroxy-3-[4-(4-methyl-6-{[4-(trifluoro-methyl)-pyridin-2-yl]amino}-pyridin-2-yl)-1H-pyrazol-1-yl]-propanamide] | ≤ 0.1 | – |
| Cc1ccnc(Nc2cccc(-c3cnn(CCC(N)=O)c3)c2)n1 [Example 2.10, 3-(4-{3-[(4-methylpyrimidin-2-yl)amino]phenyl}-1H-pyrazol-1-yl)propanamide] | 0.1 to 1 | – |
| Cc1cc(Nc2nccc(C(F)(F)F)n2)cc(-c2cnn(CC(C)(O)C(N)=O)c2)c1 (single isomer, unassigned) [Example 8.14, 2-hydroxy-2-methyl-3-[4-(3-methyl-5-{[4-(trifluorometh-yl)pyrimidin-2-yl]amino}phenyl)-1H-pyrazol-1-yl]propanamide] | ≤ 0.1 | – |
| Cc1cc(Nc2nccc(C(F)(F)F)n2)cc(-c2cnn(C[C@H](O)C(N)=O)c2)c1 [Example 8.16, (2s)-2-hydroxy-3-[4-(3-methyl-5-{[4-(trifluorometh-yl)pyrimidin-2-yl]amino}phenyl)-1H-pyrazol-1-yl]propanamide] | ≤ 0.1 | – |
| Cc1cc(Nc2nccc(C(F)F)n2)cc(-c2cnn(CC3OC(=O)NC3=O)c2)c1 (stereo not shown) [Example 2.74, 5-{[4-(3-{[4-(difluoromethyl)pyrimidin-2-yl]amino}-5-methylphenyl)-1H-pyrazol-1-yl]methyl}-1,3-oxazolidine-2,4-dione] | ≤ 0.1 | – |
| CCOC(=O)CCn1cc(-c2cc(C)cc(Nc3cc(C)c(Cl)cn3)n2)cn1 [Example 1.25, ethyl 3-(4-{6-[(5-chloro-4-methylpyridin-2-yl)amino]-4-methylpyridin-2-yl}-1H-pyrazol-1-yl)propanoate] | 0.1 to 1 | – |
| CCNC(=O)NC(C)(C)Cn1cc(-c2cc(C)cc(Nc3nccc(C(F)F)n3)c2)cn1 [Example 27.8, 1-{2-[4-(3-{[4-(difluoromethyl)pyrimidin-2-yl]amino}-5-methylphenyl)-1H-pyrazol-1-yl]-1,1-dimethylethyl}-3-ethylurea] | ≤ 0.1 | – |
| Cc1cc(Nc2ncc(F)c(C)n2)cc(-c2cnn(CC3CNC(=O)O3)c2)c1 (stereo not shown) [Example 2.22, 5-[(4-{3-[(5-fluoro-4-methylpyrimidin-2-yl)amino]-5-methylphenyl}-1H-pyrazol-1-yl)methyl]-1,3-oxazolidin-2-one] | ≤ 0.1 | – |
| Cc1cc(Nc2nccc(C(F)F)n2)cc(-c2cnn(C(C[C@@H](C)O)[C@@H](C)O)c2)c1 (stereo in doubt) [Example 2.56, 3-[4-(3-{[4-(difluoromethyl)pyrimidin-2-yl]amino}-5-methylphenyl)-1H-pyrazol-1-yl]hexane-2,5-diol] | ≤ 0.1 | – |
| Cc1cc(Nc2nccc(C(F)F)n2)cc(-c2cnn(CC(C)(C)NS(C)(=O)=O)c2)c1 [Example 27.4, N-{2-[4-(3-{[4-(difluoromethyl)pyrimidin-2-yl]amino}-5-methylphenyl)-1H-pyrazol-1-yl]-1,1-dimethylethyl}methanesulfonamide] | ≤ 0.1 | – |
| Cc1ccnc(Nc2cc(C)cc(-c3cnn(CCC(=O)O)c3)n2)c1 [Example 1.20, 3-(4-{4-methyl-6-[(4-methylpyridin-2-yl)amino]pyridin-2-yl}-1H-pyrazol-1-yl)propanoic acid] | 0.1 to 1 | – |
| Cc1cc(Nc2nccc(C(F)(F)F)n2)cc(-c2cnn([C@@H](C)[C@@](C)(O)CO)c2)c1 (single isomer, unassigned) [Example 21.8, 2-methyl-3-[4-(3-methyl-5-{[4-(trifluoromethyl)pyrimidin-2-yl]amino}phenyl)-1H-pyrazol-1-yl]butane-1,2-diol] | ≤ 0.1 | – |
| Cc1cc(Nc2nccc(C(F)(F)F)n2)cc(-c2cnn(CC3CN(C)C(=O)O3)c2)c1 (stereo not shown) [Example 3.46] | ≤ 0.1 | – |
| Cc1cc(Nc2ncccn2)cc(-c2cnn(C(C)c3ccc(C(N)=O)cc3)c2)c1 (single isomer, unassigned) [Example 28.1, 4-(1-(4-(3-Methyl-5-(pyrimidin-2-ylamino)phenyl)-1H-pyrazol-1-yl)ethyl)benzamide] | ≤ 0.1 | 0.0575 |
| Nc1cc(Nc2nccc(C(F)(F)F)n2)cc(-c2cnn(C3CCC(C(=O)O)CC3)c2)c1 (stereo not shown) [Example 1.50, 4-[4-(3-amino-5-{[4-(trifluoromethyl)pyrimidin-2-yl]amino}phenyl)-1H-pyrazol-1-yl]cyclohexanecarboxylic acid] | ≤ 0.1 | – |
| Cc1cc(Nc2nccc(C(F)(F)F)n2)cc(-c2cnn(C3CCC(C(N)=O)CC3)c2)c1 (stereo not shown) [Example 8.6, 4-[4-(3-methyl-5-{[4-(trifluorometh-yl)pyrimidin-2-yl]amino}-phenyl)-1H-pyrazol-1-yl]cyclohexane-carboxamide] | ≤ 0.1 | – |
| Cc1cc(Nc2cc(C(F)(F)F)ccn2)nc(-c2cnn(CC(C)(O)CC#N)c2)c1 (single isomer, unassigned) [Example 20.1, (R or S)-3-Hydroxy-3-methyl-4-(4-(4-methyl-6-((4-(trifluoromethyl)pyridin-2-yl)amino)pyridin-2-yl)-1H-pyrazol-1-yl)butanenitrile] | ≤ 0.1 | 0.0017 |
| Cc1cc(Nc2nccc(C(F)F)n2)cc(-c2cnn(CCNS(=O)(=O)N3CCOCC3)c2)c1 [Example 27.14, N-{2-[4-(3-{[4-(difluoromethyl)pyrimidin-2-yl]amino}-5-methylphenyl)-1H-pyrazol-1-yl]ethyl}morpholine-4-sulfonamide] | ≤ 0.1 | – |
| Cc1cc(Nc2nccc(C(C)(F)F)n2)cc(-c2cnn(CC3CNC(=O)O3)c2)c1 (stereo not shown) [Example 3.125, 5-{[4-(3-{[4-(1,1-difluoroethyl)pyrimidin-2-yl]amino}-5-methylphenyl)-1H-pyrazol-1-yl]methyl}-1,3-oxazolidin-2-one] | ≤ 0.1 | – |
| Cc1cc(Nc2nccc(C(F)(F)F)n2)cc(-c2cnn(C3CCNC(=O)CC3)c2)c1 (single isomer, unassigned) [14.1 (enantiomer 2)] | – | 0.0101 |
| Cc1cc(Nc2ncc(F)c(C(F)F)n2)cc(-c2cnn([C@H]3CCC[C@H](O)[C@@H]3O)c2)c1 (relative stereo) [Example 10.12, 3-[4-(3-{[4-(difluoromethyl)-5-fluoro-pyrimidin-2-yl]amino}-5-methylphenyl)-1H-pyrazol-1-yl]cyclohexane-1,2-diol] | ≤ 0.1 | 0.0047 |
| Cc1cc(Nc2nccc(C3CC3)n2)cc(-c2cnn(CCC(N)=O)c2)c1 [Example 2.14, 3-(4-{3-[(4-cyclopropylpyrimidin-2-yl)amino]-5-methylphenyl}-1H-pyrazol-1-yl)propanamide] | ≤ 0.1 | – |
| Cc1cc(Nc2nccc(C(F)(F)F)n2)cc(-c2cnn(CC(C)(O)C(N)=O)c2)c1 (racemic) [Example 8.11, 2-hydroxy-2-methyl-3-[4-(3-methyl-5-{[4-(trifluorometh-yl)pyrimidin-2-yl]amino}-phenyl)-1H-pyrazol-1-yl]propanamide] | ≤ 0.1 | – |
| CCOC(=O)CCn1cc(-c2cc(C)cc(Nc3cc(C)ccn3)n2)cn1 [Example 1.26, ethyl 3-(4-{4-methyl-6-[(4-methylpyridin-2-yl)amino]pyridin-2-yl}-1H-pyrazol-1-yl)propanoate] | 0.1 to 1 | – |

Reference: patent US9242984B2, “Pyrazolyl derivatives as Syk inhibitors” (Merck Sharp & Dohme Corp., priority 2012, dated 2016)
